{"source": "PubChem BioAssay (NCI)", "experiment_in_all_cases": "NCI anticancer screen, dose series, 48 h", "key": {"[1]": {"tested_on": "HCT-116 colon"}, "[2]": {"tested_on": "A549 NSCLC"}, "[3]": {"tested_on": "ACHN renal"}, "[4]": {"tested_on": "DU-145 prostate"}, "[5]": {"tested_on": "HCT-15 colon"}, "[6]": {"tested_on": "CAKI-1 renal"}, "[7]": {"tested_on": "UACC-257 melanoma"}, "[8]": {"tested_on": "RPMI-8226 leukemia"}, "[9]": {"tested_on": "SK-OV-3 ovarian"}, "[10]": {"tested_on": "TK-10 renal"}, "[11]": {"tested_on": "LOX IMVI melanoma"}, "[12]": {"tested_on": "HL-60(TB) leukemia"}, "[13]": {"tested_on": "SW-620 colon"}, "[14]": {"tested_on": "NCI-H226 lung"}, "[15]": {"tested_on": "SK-MEL-2 melanoma"}, "[16]": {"tested_on": "NCI-H460 lung"}, "[17]": {"tested_on": "OVCAR-4 ovarian"}, "[18]": {"tested_on": "NCI-H23 lung"}, "[19]": {"tested_on": "SF-295 CNS"}, "[20]": {"tested_on": "HCC-2998 colon"}, "[21]": {"tested_on": "SNB-19 CNS"}, "[22]": {"tested_on": "OVCAR-3 ovarian"}, "[23]": {"tested_on": "HS 578T breast"}, "[24]": {"tested_on": "UO-31 renal"}, "[25]": {"tested_on": "786-0 renal"}, "[26]": {"tested_on": "U251 CNS"}, "[27]": {"tested_on": "OVCAR-8 ovarian"}, "[28]": {"tested_on": "SF-539 CNS"}, "[29]": {"tested_on": "SK-MEL-5 melanoma"}, "[30]": {"tested_on": "BT-549 breast"}, "[31]": {"tested_on": "NCI-H522 lung"}, "[32]": {"tested_on": "PC-3 prostate"}, "[33]": {"tested_on": "MDA-MB-231 breast"}, "[34]": {"tested_on": "MCF7 breast"}, "[35]": {"tested_on": "EKVX NSCLC"}, "[36]": {"tested_on": "NCI/ADR-RES ovarian"}, "[37]": {"tested_on": "MOLT-4 leukemia"}, "[38]": {"tested_on": "MALME-3M melanoma"}, "[39]": {"tested_on": "HOP-92 NSCLC"}, "[40]": {"tested_on": "IGROV1 ovarian"}, "[41]": {"tested_on": "A498 renal"}, "[42]": {"tested_on": "HOP-62 NSCLC"}, "[43]": {"tested_on": "SK-MEL-28 melanoma"}, "[44]": {"tested_on": "RXF 393 renal"}, "[45]": {"tested_on": "SR leukemia"}, "[46]": {"tested_on": "T-47D breast"}, "[47]": {"tested_on": "KM12 colon"}, "[48]": {"tested_on": "HT29 colon"}, "[49]": {"tested_on": "UACC-62 melanoma"}, "[50]": {"tested_on": "K-562 leukemia"}, "[51]": {"tested_on": "CCRF-CEM leukemia"}}, "note": "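Five concentrations, 48 hours, 96-well plates. Abbreviation: GI50, concentration required for 50% inhibition of growth. TGI is the concentration that stops growth completely.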"}
{"smiles": "CN(C)c1ccc(/C=N/Nc2nc(N/N=C/c3ccc(N(C)C)cc3)nc(N3CCCCC3)n2)cc1", "values": [{"measurement": "GI50", "setting": "[1]", "result": 1.64, "unit": "µM"}, {"measurement": "TGI", "setting": "[1]", "result": 3.75, "unit": "µM"}, {"measurement": "GI50", "setting": "[2]", "result": 2.99, "unit": "µM"}, {"measurement": "TGI", "setting": "[2]", "result": "> 100", "unit": "µM"}, {"measurement": "GI50", "setting": "[3]", "result": 2.68, "unit": "µM"}, {"measurement": "TGI", "setting": "[3]", "result": 7.68, "unit": "µM"}, {"measurement": "GI50", "setting": "[4]", "result": 3.92, "unit": "µM"}, {"measurement": "TGI", "setting": "[4]", "result": "> 100", "unit": "µM"}, {"measurement": "GI50", "setting": "[5]", "result": 1.87, "unit": "µM"}, {"measurement": "TGI", "setting": "[5]", "result": 4.62, "unit": "µM"}, {"measurement": "GI50", "setting": "[6]", "result": 2.08, "unit": "µM"}, {"measurement": "TGI", "setting": "[6]", "result": 5.02, "unit": "µM"}, {"measurement": "GI50", "setting": "[7]", "result": 1.83, "unit": "µM"}, {"measurement": "TGI", "setting": "[7]", "result": 3.67, "unit": "µM"}, {"measurement": "GI50", "setting": "[8]", "result": 1.92, "unit": "µM"}, {"measurement": "TGI", "setting": "[8]", "result": 5.1, "unit": "µM"}, {"measurement": "GI50", "setting": "[9]", "result": 2.17, "unit": "µM"}, {"measurement": "TGI", "setting": "[9]", "result": 4.88, "unit": "µM"}, {"measurement": "GI50", "setting": "[10]", "result": 2.54, "unit": "µM"}, {"measurement": "TGI", "setting": "[10]", "result": 7.28, "unit": "µM"}, {"measurement": "GI50", "setting": "[11]", "result": 1.61, "unit": "µM"}, {"measurement": "TGI", "setting": "[11]", "result": 3.19, "unit": "µM"}, {"measurement": "GI50", "setting": "[12]", "result": 2.2, "unit": "µM"}, {"measurement": "TGI", "setting": "[12]", "result": 6.71, "unit": "µM"}, {"measurement": "GI50", "setting": "[13]", "result": 3.17, "unit": "µM"}, {"measurement": "TGI", "setting": "[13]", "result": "> 100", "unit": "µM"}, {"measurement": "GI50", "setting": "[14]", "result": 2.19, "unit": "µM"}, {"measurement": "TGI", "setting": "[14]", "result": 5.64, "unit": "µM"}, {"measurement": "GI50", "setting": "[15]", "result": 1.99, "unit": "µM"}, {"measurement": "TGI", "setting": "[15]", "result": 3.72, "unit": "µM"}, {"measurement": "GI50", "setting": "[16]", "result": 3.21, "unit": "µM"}, {"measurement": "TGI", "setting": "[16]", "result": "> 100", "unit": "µM"}, {"measurement": "GI50", "setting": "[17]", "result": 5.03, "unit": "µM"}, {"measurement": "TGI", "setting": "[17]", "result": "> 100", "unit": "µM"}, {"measurement": "GI50", "setting": "[18]", "result": 3.49, "unit": "µM"}, {"measurement": "TGI", "setting": "[18]", "result": "> 100", "unit": "µM"}, {"measurement": "GI50", "setting": "[19]", "result": 1.96, "unit": "µM"}, {"measurement": "TGI", "setting": "[19]", "result": 3.79, "unit": "µM"}, {"measurement": "GI50", "setting": "[20]", "result": 2.4, "unit": "µM"}, {"measurement": "TGI", "setting": "[20]", "result": 6.67, "unit": "µM"}, {"measurement": "GI50", "setting": "[21]", "result": 3.33, "unit": "µM"}, {"measurement": "TGI", "setting": "[21]", "result": "> 100", "unit": "µM"}, {"measurement": "GI50", "setting": "[22]", "result": 2.28, "unit": "µM"}, {"measurement": "TGI", "setting": "[22]", "result": 5.03, "unit": "µM"}, {"measurement": "GI50", "setting": "[23]", "result": 2.09, "unit": "µM"}, {"measurement": "TGI", "setting": "[23]", "result": 5.57, "unit": "µM"}, {"measurement": "GI50", "setting": "[24]", "result": 1.72, "unit": "µM"}, {"measurement": "TGI", "setting": "[24]", "result": 3.7, "unit": "µM"}, {"measurement": "GI50", "setting": "[25]", "result": 1.7, "unit": "µM"}, {"measurement": "TGI", "setting": "[25]", "result": 3.62, "unit": "µM"}, {"measurement": "GI50", "setting": "[26]", "result": 2.88, "unit": "µM"}, {"measurement": "TGI", "setting": "[26]", "result": 14.3, "unit": "µM"}, {"measurement": "GI50", "setting": "[27]", "result": 3.21, "unit": "µM"}, {"measurement": "TGI", "setting": "[27]", "result": "> 100", "unit": "µM"}, {"measurement": "GI50", "setting": "[28]", "result": 1.99, "unit": "µM"}, {"measurement": "TGI", "setting": "[28]", "result": 3.97, "unit": "µM"}, {"measurement": "GI50", "setting": "[29]", "result": 1.73, "unit": "µM"}, {"measurement": "TGI", "setting": "[29]", "result": 3.15, "unit": "µM"}, {"measurement": "GI50", "setting": "[30]", "result": 15.5, "unit": "µM"}, {"measurement": "TGI", "setting": "[30]", "result": 58.6, "unit": "µM"}, {"measurement": "GI50", "setting": "[31]", "result": 2.06, "unit": "µM"}, {"measurement": "TGI", "setting": "[31]", "result": 4.56, "unit": "µM"}, {"measurement": "GI50", "setting": "[32]", "result": 2.57, "unit": "µM"}, {"measurement": "TGI", "setting": "[32]", "result": 7.91, "unit": "µM"}, {"measurement": "GI50", "setting": "[33]", "result": 1.8, "unit": "µM"}, {"measurement": "TGI", "setting": "[33]", "result": 3.4, "unit": "µM"}, {"measurement": "GI50", "setting": "[34]", "result": 2.86, "unit": "µM"}, {"measurement": "TGI", "setting": "[34]", "result": "> 100", "unit": "µM"}, {"measurement": "GI50", "setting": "[35]", "result": 3.13, "unit": "µM"}, {"measurement": "TGI", "setting": "[35]", "result": "> 100", "unit": "µM"}, {"measurement": "GI50", "setting": "[36]", "result": 3.19, "unit": "µM"}, {"measurement": "TGI", "setting": "[36]", "result": 17, "unit": "µM"}, {"measurement": "GI50", "setting": "[37]", "result": 2.87, "unit": "µM"}, {"measurement": "TGI", "setting": "[37]", "result": "> 100", "unit": "µM"}, {"measurement": "GI50", "setting": "[38]", "result": 1.86, "unit": "µM"}, {"measurement": "TGI", "setting": "[38]", "result": 3.4, "unit": "µM"}, {"measurement": "GI50", "setting": "[39]", "result": 1.47, "unit": "µM"}, {"measurement": "TGI", "setting": "[39]", "result": 3.25, "unit": "µM"}, {"measurement": "GI50", "setting": "[40]", "result": 2.96, "unit": "µM"}, {"measurement": "TGI", "setting": "[40]", "result": "> 100", "unit": "µM"}, {"measurement": "GI50", "setting": "[41]", "result": 1.58, "unit": "µM"}, {"measurement": "TGI", "setting": "[41]", "result": 3.51, "unit": "µM"}, {"measurement": "GI50", "setting": "[42]", "result": 2.19, "unit": "µM"}, {"measurement": "TGI", "setting": "[42]", "result": 5.05, "unit": "µM"}, {"measurement": "GI50", "setting": "[43]", "result": 2, "unit": "µM"}, {"measurement": "TGI", "setting": "[43]", "result": 4.35, "unit": "µM"}, {"measurement": "GI50", "setting": "[44]", "result": 2.12, "unit": "µM"}, {"measurement": "TGI", "setting": "[44]", "result": 6.12, "unit": "µM"}, {"measurement": "GI50", "setting": "[45]", "result": 0.369, "unit": "µM"}, {"measurement": "TGI", "setting": "[45]", "result": "> 100", "unit": "µM"}, {"measurement": "GI50", "setting": "[46]", "result": 2.18, "unit": "µM"}, {"measurement": "TGI", "setting": "[46]", "result": 5.54, "unit": "µM"}, {"measurement": "GI50", "setting": "[47]", "result": 2.84, "unit": "µM"}, {"measurement": "TGI", "setting": "[47]", "result": 8.49, "unit": "µM"}, {"measurement": "GI50", "setting": "[48]", "result": 1.76, "unit": "µM"}, {"measurement": "TGI", "setting": "[48]", "result": 3.36, "unit": "µM"}, {"measurement": "GI50", "setting": "[49]", "result": 1.84, "unit": "µM"}, {"measurement": "TGI", "setting": "[49]", "result": 3.78, "unit": "µM"}, {"measurement": "GI50", "setting": "[50]", "result": 0.895, "unit": "µM"}, {"measurement": "TGI", "setting": "[50]", "result": "> 100", "unit": "µM"}, {"measurement": "GI50", "setting": "[51]", "result": 1.21, "unit": "µM"}, {"measurement": "TGI", "setting": "[51]", "result": "> 100", "unit": "µM"}]}
